# Experiments:
# Assay type in all cases: cell-based
# IL-1β = assay: Whole bovine blood assay, LPS-induced IL-1β (inhibition / overstimulation); conditions: drug concentration giving overstimulation (OS) of LPS-induced IL-1β, top concentration 250 μM
# Experimental: (§1) Whole Blood Assay-Fresh whole bovine blood samples were collected into heparinized vacutainer tubes. Assay plates were prepared with 25 μL of drug diluted in PBS at varying concentration in 96 round bottom wells, then 225 μL of blood was added and plates incubated at 37° C. for 4 hours. Cells were stimulated with LPS (or PBS for controls) by adding 25 μL to the plates at a final concentration of 1 μg/mL and incubated at 37° C. for 18 hours. To collect plasma, plates were centrifuged at 2,000×g for 10 minutes and 100 μL of supernatant was transferred to a 96 well polypropylene plate that was sealed and stored at −80° C. Samples were assayed for cytokines using the Meso Scale Discovery (MSD) platform (described below). This same MSD platform was used to assess cytokines in the plasma collected directly from drug treated animals.
# (§2) Cytokine Detection—An MSD U-Plex cytokine assay was developed following the MSD U-Plex protocol guide and included biotinylated capture antibodies against: bovine Interleukin (IL)-1β (Biorad), bovine IL-6 (R&D Systems) and bovine tumor necrosis factor (TNF)-α (R&D Systems). The anti-IL-1β antibody was biotinylated using EZ-Link Sulfo-NHS-Biotin (Thermo Scientific) at a challenge ratio of 1:20 according to manufacturer instructions. Assay calibrators (Kingfisher) were diluted to a concentration of […] in control lithium heparin plasma, followed by 4-fold serial dilutions into plasma. The detection antibodies were sulfo-tagged following the MSD quick guide conjugation protocol using a challenge ratio of 1:20. Antibodies were used at the following concentrations: anti-IL-1β at 1 μg/mL, anti-IL-6 at 1 μg/mL and anti-TNF-α at 0.5 μg/mL. Cytokines were quantified according to manufacturer's instructions using a chemiluminescent readout. In brief, 0.5 mL of all biotinylated antibodies were diluted to 10 μg/mL with Diluent 100 and paired to their respective linkers by adding 750 μL of supplied Linker solution and incubated for 30 minutes followed by addition of Stop solution for another 30 minutes. The linked antibodies were then diluted 10-fold into Stop solution. Plates were coated by adding 50 μL of antibody solutions per well and incubated covered and shaking for 1 hour at room temperature. Plates were washed three times with PBS/Tween20 prior to samples or standards being added at 30 μL per well and incubated as above. Plates were washed three times before detection antibodies were added along with 2% goat and rabbit serum to block and incubated same as above. Plates were washed a further three times before addition of 150 μL 2X Read buffer and read immediately on the SI6000 instrument (MSD). For soluble protein levels, a BCA protein kit (Thermofisher) was used. The cytokine concentrations (pg/mL) were normalized to the total protein levels for each sample. [Bassel et. al., BMC Veterinary Research (2020) 16:168]
# (§3) Therefore, a fresh whole bovine blood assay was developed with LPS as a stimulant (TLR-4 agonist) and with IL-1β and TNF-α as the read-out. Compounds of the invention were evaluated against a positive control for their ability to inhibit LPS-induced IL-1β and TNF-α as an overall evaluation of relative potency and modulation of target pathways.
# For M9, the top dose of 500 μM was not high enough to determine an overstimulation of IL-1 B which was recorded as not applicable (n/a). The enhanced response indicates increased concentration of IL-1β cytokine at the drug concentration indicated. This is generally observed when compounds are out of range (high concentration) and stimulate a cellular toxicity signal. Further data supporting this hypothesis includes murine studies using a P. multocida infection in mice.
# TNFα is a cell signaling protein, cytokine, that plays a key role in both acute and chronic inflammation. […]
# TNF-α = assay: Whole bovine blood assay, LPS-induced TNF-α; conditions: fresh whole bovine blood, LPS stimulant; top drug concentration 250 μM
# Experimental: as §1
# as §2, with “The anti-IL-1β antibody was biotinylated using EZ-Link Sulfo-NHS-Biotin (Thermo Scientific) at a challenge ratio of 1:20 according to manufacturer instructions.” left out, “The detection antibodies were sulfo-tagged following the MSD quick guide conjugation protocol using a challenge ratio of 1:20.” left out
# as §3
# TNFα is a cell signaling protein, cytokine, that plays a key role in both acute and chronic inflammation. In the bovine whole blood in vitro screening assay the inhibition of TNFα as induced by stimulation by lipopolysaccharide (LPS) and as measured by half the maximal inhibitory concentration (IC50) is recognized as the primary biomarker of immunomodulation potency upon pretreatment with the compounds of the invention. IL-1 B is a mediator of the inflammation response and is involved in a number of cellular activities including proliferation, differentiation and apoptosis. IL-1ß is also released upon cellular stress or cytotoxicity or upon TLR stimulation. […] In order to estimate a therapeutic index from the in vitro assay a differential between the TNFα IC50 (immunomodulation potency) versus the perceived cellular toxicity concentration (IL-1β release or overstimulation) was utilized.
# IL-6 = assay: Whole bovine blood assay, LPS-induced IL-6; conditions: fresh whole bovine blood, LPS stimulant; top drug concentration 250 μM
Structure (SMILES),minimal effective concentration (IL-1β),IC50 (TNF-α),IC50 (IL-6)
CCCNC[C@]1(O)[C@H](C)O[C@@H](O[C@H]2[C@H](C)[C@@H](O[C@@H]3O[C@H](C)C[C@H](N(C)S(=O)(=O)c4c(C)noc4C)[C@H]3O)[C@](C)(O)C[C@@H](C)CN[C@H](C)[C@@H](O)[C@](C)(O)[C@@H](CC)OC(=O)[C@@H]2C)C[C@@]1(C)OC [Example B-4],40 µM,–,–
CCCNC[C@]1(O)[C@H](C)O[C@@H](O[C@H]2[C@H](C)[C@@H](O[C@@H]3O[C@H](C)C[C@H](N(C)S(=O)(=O)c4ccc(S(C)(=O)=O)cc4)[C@H]3O)[C@](C)(O)C[C@@H](C)CN[C@H](C)[C@@H](O)[C@](C)(O)[C@@H](CC)OC(=O)[C@@H]2C)C[C@@]1(C)OC [Example B-11],>250 µM,–,–
CCCNC[C@]1(O)[C@H](C)O[C@@H](O[C@H]2[C@H](C)[C@@H](O[C@@H]3O[C@H](C)C[C@H](N(C)S(=O)(=O)c4ccc(S(N)(=O)=O)cc4)[C@H]3O)[C@](C)(O)C[C@@H](C)CN[C@H](C)[C@@H](O)[C@](C)(O)[C@@H](CC)OC(=O)[C@@H]2C)C[C@@]1(C)OC [Example B-15],>250 µM,–,–
CCCNC[C@]1(O)[C@H](C)O[C@@H](O[C@H]2[C@H](C)[C@@H](O[C@@H]3O[C@H](C)C[C@H](N(C)S(=O)(=O)c4ccc(C#N)nc4)[C@H]3O)[C@](C)(O)C[C@@H](C)CN[C@H](C)[C@@H](O)[C@](C)(O)[C@@H](CC)OC(=O)[C@@H]2C)C[C@@]1(C)OC [Example B-17],100 µM,–,–
CCCNC[C@]1(O)[C@H](C)O[C@@H](O[C@H]2[C@H](C)[C@@H](O[C@@H]3O[C@H](C)C[C@H](N(C)S(=O)(=O)N(C)c4ccc(C#N)cc4)[C@H]3O)[C@](C)(O)C[C@@H](C)CN[C@H](C)[C@@H](O)[C@](C)(O)[C@@H](CC)OC(=O)[C@@H]2C)C[C@@]1(C)OC [Example B-62],3 µM,–,–
CCCNC[C@]1(O)[C@H](C)O[C@@H](O[C@H]2[C@H](C)[C@@H](O[C@@H]3O[C@H](C)C[C@H](N(C)S(=O)(=O)c4nccn4C)[C@H]3Oc3ccc(OC)cc3)[C@](C)(O)C[C@@H](C)CN[C@H](C)[C@@H](O)[C@](C)(O)[C@@H](CC)OC(=O)[C@@H]2C)C[C@@]1(C)OC [Example B-119],6 µM,–,–
CCCNC[C@]1(O)[C@H](C)O[C@@H](O[C@H]2[C@H](C)[C@@H](O[C@@H]3O[C@H](C)C[C@H](N(C)S(=O)(=O)c4ccccc4)[C@H]3Oc3ccc(Cl)cn3)[C@](C)(O)C[C@@H](C)CN[C@H](C)[C@@H](O)[C@](C)(O)[C@@H](CC)OC(=O)[C@@H]2C)C[C@@]1(C)OC [Example B-135],6 µM,–,–
CCCNC[C@]1(O)[C@H](C)O[C@@H](O[C@H]2[C@H](C)[C@@H](O[C@@H]3O[C@H](C)C[C@H](N(C)S(N)(=O)=O)[C@H]3O)[C@](C)(O)C[C@@H](C)CN[C@H](C)[C@@H](O)[C@](C)(O)[C@@H](CC)OC(=O)[C@@H]2C)C[C@@]1(C)OC [Example B-140],>250 µM,–,–
CC[C@H]1OC(=O)[C@H](C)[C@@H](O[C@H]2C[C@@](C)(OC)[C@](O)(CN3CCCCC3)[C@H](C)O2)[C@H](C)[C@@H](O[C@@H]2O[C@H](C)C[C@H](N(C)S(=O)(=O)Nc3cccc(Cl)c3)[C@H]2O)[C@](C)(O)C[C@@H](C)CN[C@H](C)[C@@H](O)[C@]1(C)O [Example C-23],–,9 µM,10 µM
CC[C@H]1OC(=O)[C@H](C)[C@@H](O[C@H]2C[C@@](C)(OC)[C@](O)(CN3CCCCC3)[C@H](C)O2)[C@H](C)[C@@H](O[C@@H]2O[C@H](C)C[C@H](N(C)S(=O)(=O)Nc3ccc(Cl)c(Cl)c3)[C@H]2O)[C@](C)(O)C[C@@H](C)CN[C@H](C)[C@@H](O)[C@]1(C)O [Example C-28],–,25 µM,25 µM
CC[C@H]1OC(=O)[C@H](C)[C@@H](O[C@H]2C[C@@](C)(OC)[C@](O)(CN3CCCCC3)[C@H](C)O2)[C@H](C)[C@@H](O[C@@H]2O[C@H](C)C[C@H](N(C)S(=O)(=O)Nc3ccc(C)cc3)[C@H]2O)[C@](C)(O)C[C@@H](C)CN[C@H](C)[C@@H](O)[C@]1(C)O [Example C-32],–,5 µM,8 µM
CC[C@H]1OC(=O)[C@H](C)[C@@H](O[C@H]2C[C@@](C)(OC)[C@](O)(CN3CCCCC3)[C@H](C)O2)[C@H](C)[C@@H](O[C@@H]2O[C@H](C)C[C@H](N(C)S(=O)(=O)Nc3ccc(C)c(C)c3)[C@H]2O)[C@](C)(O)C[C@@H](C)CN[C@H](C)[C@@H](O)[C@]1(C)O [Example C-33],–,7 µM,7 µM
CC[C@H]1OC(=O)[C@H](C)[C@@H](O[C@H]2C[C@@](C)(OC)[C@](O)(CN3CCCCC3)[C@H](C)O2)[C@H](C)[C@@H](O[C@@H]2O[C@H](C)C[C@H](N(C)S(=O)(=O)Nc3ccc(C(F)(F)F)cc3)[C@H]2O)[C@](C)(O)C[C@@H](C)CN(CC)[C@H](C)[C@@H](O)[C@]1(C)O [Example C-36],–,6 µM,9 µM
CCCN([C@H]1C[C@@H](C)O[C@@H](O[C@@H]2[C@@H](C)[C@H](O[C@H]3C[C@@](C)(OC)[C@](O)(CN4CCCCC4)[C@H](C)O3)[C@@H](C)C(=O)O[C@H](CC)[C@@](C)(O)[C@H](O)[C@@H](C)NC[C@H](C)C[C@@]2(C)O)[C@@H]1O)S(=O)(=O)c1ccc(Cl)cc1 [Example C-40],–,5 µM,4 µM
CC[C@H]1OC(=O)[C@H](C)[C@@H](O[C@H]2C[C@@](C)(OC)[C@](O)(CN3CCCCC3)[C@H](C)O2)[C@H](C)[C@@H](O[C@@H]2O[C@H](C)C[C@H](N(CC(C)C)S(=O)(=O)c3ccc(Cl)cc3)[C@H]2O)[C@](C)(O)C[C@@H](C)CN[C@H](C)[C@@H](O)[C@]1(C)O [Example C-42],–,6 µM,6 µM
CC[C@H]1OC(=O)[C@H](C)[C@@H](O[C@H]2C[C@@](C)(OC)[C@](O)(CN3CCCCC3)[C@H](C)O2)[C@H](C)[C@@H](O[C@@H]2O[C@H](C)C[C@H](N(C)S(=O)(=O)c3nccn3C)[C@H]2Oc2ccc(F)cc2)[C@](C)(O)C[C@@H](C)CN[C@H](C)[C@@H](O)[C@]1(C)O [Example C-56],–,5 µM,4 µM

# — patent US20250236616A1, “IMMUNOMODULATING AZALIDES” (Zoetis Services LLC, priority 2021, published 2025)
